The values below are quoted from earlier work in patent US9788539B2, “Platelet protection solution having beta-galactosidase and sialidase inhibitors” (Velico Medical, Inc., priority 2011, dated 2017).

The target in the data set is viral, bacterial and mammalian sialidases. Conditions: cited from earlier work.

As for `CC(=O)NC1C(O)C=C(C(=O)O)OC1C(O)C(O)CO` (stereo not shown) [DANA], the Ki entry is “low μM range”.
